Values joined by “and” are separate entries in the source; they are usually repeats but may differ in a detail not shown here. Equal values may be shown once.

The subject of this assay is 843782-103-R-J1-PDC complex spheroid viability. Kind of assay: Anticancer human tumor 843782-103-R-J1-PDC patient-derived lung adenocarcinoma cell line growth inhibition [RAS]. The conditions noted are these: for viability, T/C: stronger effect = lower value. The gist of the method: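 Multi-cell-type spheroids: tumor cells plus HUVEC endothelial cells and mesenchymal stem cells. RAS-pathway inhibitors were combined with targeted agents, each dosed in half-log steps down from clinical Cmax, or from 10 microM when Cmax was unknown.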

Setting [1] is: curve of first compound, second compound 0.0316 µM.
The mark [2] stands for this setting: curve of first compound, second compound 0.1 µM.
[3] abbreviates: curve of first compound, second compound 0.316 µM.
[4] abbreviates: curve of first compound, second compound 1 µM.
The mark [5] stands for this setting: second compound 0.0316 µM, first compound 0.0316 µM.
The mark [6] stands for this setting: second compound 0.0316 µM, first compound 0.1 µM.
The mark [7] stands for this setting: second compound 0.0316 µM, first compound 0.316 µM.
The mark [8] stands for this setting: second compound 0.0316 µM, first compound 1 µM.
The mark [9] stands for this setting: second compound 0.0316 µM, first compound 3.16 µM.
[10] abbreviates: second compound 0.0316 µM, first compound 10 µM.
The mark [11] stands for this setting: second compound 0.1 µM, first compound 0.0316 µM.
Setting [12] is: second compound 0.1 µM, first compound 0.1 µM.
Where [13] appears, read: second compound 0.1 µM, first compound 0.316 µM.
Setting [14] is: second compound 0.1 µM, first compound 1 µM.
The mark [15] stands for this setting: second compound 0.1 µM, first compound 3.16 µM.
Where [16] appears, read: second compound 0.1 µM, first compound 10 µM.
Setting [17] is: second compound 0.316 µM, first compound 0.0316 µM.
[18] abbreviates: second compound 0.316 µM, first compound 0.1 µM.
Where [19] appears, read: second compound 0.316 µM, first compound 0.316 µM.
The mark [20] stands for this setting: second compound 0.316 µM, first compound 1 µM.
The mark [21] stands for this setting: second compound 0.316 µM, first compound 3.16 µM.
Where [22] appears, read: second compound 0.316 µM, first compound 10 µM.
The mark [23] stands for this setting: second compound 1 µM, first compound 0.0316 µM.
[24] abbreviates: second compound 1 µM, first compound 0.1 µM.
[25] abbreviates: second compound 1 µM, first compound 0.316 µM.
Where [26] appears, read: second compound 1 µM, first compound 1 µM.
Setting [27] is: second compound 1 µM, first compound 3.16 µM.
[28] abbreviates: second compound 1 µM, first compound 10 µM.
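Further: viability read after seven days of compound exposure.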

Consider `Cc1nc(N2CCC3(CC2)COC(C)C3N)c(CO)nc1Sc1ccnc(N)c1Cl` (stereo not given) + C#Cc1c(F)ccc2cc(O)cc(-c3ncc4c(N5CC6CCC(C5)N6)nc(OCC56CCCN5CC(F)C6)nc4c3F)c12, for which the IC50 is, setting by setting: under setting [1], 8650 nM; under setting [2], 5420 nM; under setting [3], 4690 nM; under setting [4], 536 nM; (curve of first compound, second compound 3.16 µM) 141 nM; (curve of first compound, second compound 10 µM) less than 31.6 nM. Also, the viability, T/C reads like this: under setting [5], 107%; under setting [6], 102%; under setting [7], 85.6%; under setting [8], 77.2%; under setting [9], 68.2%; under setting [10], 45.8%. Further, the viability, T/C is, setting by setting: under setting [11], 105%; under setting [12], 98%; under setting [13], 83.1%; under setting [14], 72.6%; under setting [15], 54.3%; under setting [16], 44%. Besides, the viability, T/C is, setting by setting: under setting [17], 100%; under setting [18], 91.4%; under setting [19], 79.5%; under setting [20], 65.9%; under setting [21], 50.6%; under setting [22], 46.2%. In addition, the viability, T/C was 96% under setting [23]; 80.9% under setting [24]; 60% under setting [25]; 39.5% under setting [26]; 29.6% under setting [27]; 32.1% under setting [28]. The viability, T/C is 82.6% (second compound 3.16 µM, first compound 0.0316 µM); 54.5% (second compound 3.16 µM, first compound 0.1 µM); 39.4% (second compound 3.16 µM, first compound 0.316 µM); 27.9% (second compound 3.16 µM, first compound 1 µM); 27.4% (second compound 3.16 µM, first compound 3.16 µM); 23.4% (second compound 3.16 µM, first compound 10 µM). Also, the viability, T/C runs as follows: (second compound 10 µM, first compound 0.0316 µM) 49.2%; (second compound 10 µM, first compound 0.1 µM) 32.2%; (second compound 10 µM, first compound 0.316 µM) 30.9%; (second compound 10 µM, first compound 1 µM) 25.4%; (second compound 10 µM, first compound 3.16 µM) 21.6%; (second compound 10 µM, first compound 10 µM) 21.2%.
Take `CC(Nc1ccc2c(c1)OCCn1cc(N3C(=O)OCC3C(F)F)nc1-2)C(N)=O` (stereo not given) + C=CC(=O)N1CCN(c2nc(OCC3CCCN3C)nc3c(F)c(-c4nc(N)cc(C)c4C(F)(F)F)c(Cl)cc23)C(C)C1: the IC50 by setting is: (curve of first compound, second compound 0.00316 µM) 129 nM; (curve of first compound, second compound 0.01 µM) 93.6 nM; under setting [1], 96.2 nM; under setting [2], 133 nM; under setting [3], 114 nM; under setting [4], 118 nM. Besides, the viability, T/C was 78.7% (second compound 0.00316 µM, first compound 0.0316 µM); 51.4% (second compound 0.00316 µM, first compound 0.1 µM); 38% (second compound 0.00316 µM, first compound 0.316 µM); 24.7% (second compound 0.00316 µM, first compound 1 µM); 17.9% (second compound 0.00316 µM, first compound 3.16 µM); 9.53% (second compound 0.00316 µM, first compound 10 µM). Besides, the viability, T/C by setting is: (second compound 0.01 µM, first compound 0.0316 µM) 69%; (second compound 0.01 µM, first compound 0.1 µM) 49.3%; (second compound 0.01 µM, first compound 0.316 µM) 32.3%; (second compound 0.01 µM, first compound 1 µM) 25.1%; (second compound 0.01 µM, first compound 3.16 µM) 19.7%; (second compound 0.01 µM, first compound 10 µM) 10.9%. For the same compound, the viability, T/C is 69.3% under setting [5]; 49.5% under setting [6]; 33.6% under setting [7]; 23.1% under setting [8]; 20.4% under setting [9]; 9.06% under setting [10]. The viability, T/C by setting is: under setting [11], 67.8%; under setting [12], 57.8%; under setting [13], 30%; under setting [14], 23.1%; under setting [15], 15.4%; under setting [16], 10.2%. Moreover, the viability, T/C reads like this: under setting [17], 65.7%; under setting [18], 54.2%; under setting [19], 33.5%; under setting [20], 24.3%; under setting [21], 17.4%; under setting [22], 8.73%. The viability, T/C is 74.3% under setting [23]; 45.4% under setting [24]; 40.6% under setting [25]; 26.5% under setting [26]; 17.9% under setting [27]; 8.86% under setting [28].
As for `CC1(C)CCC(Nc2ncc(C(F)(F)F)c(-c3c[nH]c4c(P(C)(C)=O)c(C#N)ccc34)n2)CN1` (stereo not given), the viability, T/C reads like this: (compound 0.000949 µM) 107% (2×) and 108% and 102%; (compound 0.003 µM) 93.6% [middle of 4 runs]; (compound 0.00949 µM) 58.3% [middle of 4 runs]; (compound 0.0949 µM) 22.4% [middle of 4 runs]; (compound 0.3 µM) 19.5% [middle of 4 runs]. Besides, the IC50 (curve of compound) is 13.6 nM [middle of 4 runs].
For `O=C(c1ccc(F)c(F)c1Nc1ccc(I)cc1F)N1CC(O)([C@@H]2CCCCN2)C1`, the viability, T/C was 99.8% and 99.4% and 102% (2×) (compound 0.00316 µM); 93.1% [middle of 4 runs] (compound 0.01 µM); 48.7% [middle of 4 runs] (compound 0.316 µM); 27.1% [middle of 4 runs] (compound 1 µM).
Take `CCC(CC)c1cc(NC2CCC(N)C2)n2nccc2n1` (stereo not given): the viability, T/C is, setting by setting: (compound 0.0316 µM) 114% and 109% and 101% (2×); (compound 0.1 µM) 107% [middle of 4 runs]; (compound 0.316 µM) 101% [middle of 4 runs]; (compound 3.16 µM) 2.11% [middle of 4 runs]; (compound 10 µM) 0.82% [middle of 4 runs]. For the same compound, the IC50 (curve of compound) was 1.78 µM [middle of 4 runs].

As usually defined, the IC50 is the point on the concentration scale where inhibition reaches its midpoint. In general, viability, T/C refers to the ratio of treated to control.

Source of the values: PubChem BioAssay AID2060883 (Molecular Pharmacology Branch, DTP, NCI, 2025).
